Entries after “also recorded” stand apart in the source; their conditions may differ. Where no end group is shown, it is not given here.
Legend:
[1] = tested on: vessels in human xenograft PC-3 (prostate carcinoma) tumors; test: in vivo binding of intravenously injected peptide in PC-3 tumor-bearing mice (fluorescence microscopy of frozen sections); set-up: species or system mouse; conditions: for binding to vessels in the tumors (tumor cross-sections): five i.v. (tail vein) injections of 1 ng/mouse at one hour intervals
Description: (§1) Additionally, in vivo experiments with the prototype peptide, SEQ ID NO 3, which stained the brightest in the in vitro experiments described above, were conducted using several different assays as described below. In one in vivo assay, tumor-bearing mice were injected five times intravenously (tail vein) with 1 ng/mouse at one hour intervals. The mice were sacrificed 15 minutes after the final injection, the tumors and other normal tissues (lung, heart, muscle) were taken for fresh frozen sectioning (i.e., embedded in OCT medium and frozen) and for evaluation via fluorescence microscopy. […] Although these peptides were generated from TDEC originating from the murine SCC tumor, SEQ ID NO 3 also bound to the endothelium from a human xenograft model.
The specificity of SEQ ID NO 3 for endothelial vessels is illustrated in FIG. 7. In this experiment, PC-3 tumor-bearing mice were injected (as described above) with positive control poly-L-lysine, negative control SEQ ID NO 8 Pen G7 and peptide SEQ ID NO 3. FIG. 7A, 7B and 7C are micrographs illustrating cross-sections of PC-3 tumor from tumor-bearing mice that were injected with peptides. In each figure, the gray diamond indicates the location of the lumen of the blood vessel.

[2] = tested on: tumor-derived endothelial cells (TDEC); test: in vitro binding of FITC-conjugated peptides to TDEC monolayers (fluorescent microscopy), NIH3T3 as negative control monolayer; format: cell-based, mouse; conditions: peptide 5 μg/ml overnight at 37° C. in PBS with 10% FCS; TDEC vs NIH3T3 monolayers
Description: Tumors were established by subcutaneous injection of 5×10^6 SCC VII cells per C3H/HeJ mouse. After a tumor had achieved a diameter of 0.5 cm to 1.0 cm and before any evidence of central necrosis, it was removed sterilely, minced, and digested with collagenases and RNAses to yield a single cell suspension. The cells were then stained using antibody for PECAM-1. The stained cells were sorted using automated flow cytometry and the positive cells were cultured as TDECs in Po Media [DMEM supplemented with 20% Sarcoma-180 conditioned media, 10% Fetal Calf Serum, 1% BME vitamin, 1% heparin, and 0.005% endothelial cell growth supplement (Collaborative Research)].
Evidence for specific binding of oligopeptides to TDEC was accomplished as follows. The most frequently repetitive sequences obtained from the 100 clones were used for synthesis of oligopeptides (Sigma Genesis). By conjugating fluorescein isothiocynate ([…]) to the carboxyl termini of peptides, these molecules were tested for in vitro binding with TDECs and NIH3T3 cells (negative control cell line). These peptides contained flanking cysteines so that a disulfide loop may be reformed, thus constraining and mimicking the binding condition of the initial selection process. […]

[3] = tested on: vessels in murine SCC (squamous cell) tumors; test: in vivo binding of intravenously injected peptide in tumor-bearing mice, murine SCC tumor model (fluorescence microscopy of frozen sections); set-up: species or system mouse
Description: as §1

[4] = tested on: human soft tissue sarcoma and prostate carcinoma tumor sections (endothelium); test: triple staining of fresh frozen human tumor sections with FITC-tagged peptide, anti-Factor VIII antibody and nuclear stain; format: binding; conditions: fresh frozen sections snap fixed in paraformaldehyde
Description: The ability of novel peptide motifs of the present invention to cross-react with tissues from different sources was tested using human samples from a pathologist-diagnosed soft tissue sarcoma and a prostate carcinoma. Fresh frozen tumor sections were snap fixed in paraformaldehyde, and then triple stained for fluorescence microscopic analysis, the results of which are shown in FIG. 8. The staining included: a stain for cell nuclei, and anti-Factor VIII antibody (secondary antibody labeled with Cy3 red fluorescent probe), and peptide SEQ ID NO 3 (tagged with FITC, green upon fluorescence). […] Factor VIII staining is specific for endothelial cells which produce and store the Factor VIII blood factor.

Row | Substance | binding to vessels in the tumors (tumor cross-sections) [1] | staining / binding specificity of FITC-labeled peptide for TDEC [2] | binding to vessels of normal tissues ([3]; murine SCC tumor-bearing mice, lung, heart, muscle, five i.v. injections of 1 ng/mouse) | binding to vessels in the tumors ([3]; murine SCC tumor, five i.v. (tail vein) injections of 1 ng/mouse at one hour intervals, sacrifice 15 minutes after final injection) | distribution of staining in PC-3 tumor cross-section ([1]; after i.v. injection, FIG. 7C) | binding to vessels of normal tissues ([1]; lung, heart, muscle, five i.v. injections of 1 ng/mouse) | staining of human tumor sections relative to Factor VIII-positive (vascularized) regions [4]
1 | CGGGGGGGC (cysteine pairing not given here) [SEQ ID NO 8 Pep G7, negative control peptide, seven glycine residues flanked by cysteines, reference compound] | no binding activity |  |  |  |  |  | 
2 | CGGRKLGGC (cysteine pairing not given here) [SEQ ID NO 2] |  | preferential staining for TDEC; also recorded: some binding specificity to TDEC |  |  |  |  | 
3 | CGGRRLGGC (cysteine pairing not given here) [SEQ ID NO 3] | preferential binding; also recorded: intense binding to the cells of the vessel | brightest staining and specificity for TDEC; also recorded: highest in vitro binding specificity to TDEC | no binding to the vessels of normal tissues | preferential binding | limited to the blood vessel wall | no binding to the vessels of normal tissues | observed primarily in the regions of the tissue that were vascularized
4 | poly-L-lysine [reference compound] | not only bound to the cells of the blood vessel, but also diffused through the intercellular space |  |  |  |  |  | 
